The values that follow are results of earlier work, collected in patent US6710071B2, “Difluoromethylene aromatic ethers as inhibitors of glycine transport” (Pfizer Inc, priority 2001, dated 2004).

This data set concerns NMDA receptor. To be noted: effect blocked by a specific NMDA-site antagonist and a glycine-site antagonist.

`CN(CCC(Oc1ccc(-c2ccccc2)cc1)c1ccc(F)cc1)CC(=O)O` (stereo not shown) [NFPS]: the “post synaptic current driven by the NMDA receptor” value is on record as “increased”.
